Source: US9670462B2, “Bioactive surface for hepatocyte-based applications” (priority 2006, dated 2017)

Tested on: hepatocytes

| Structure (SMILES) | effect on hepatocyte monolayer maintained on PET-Hybrid (soluble peptide 100 μM in culture medium) | toxicity to the hepatocytes (soluble peptide, treatment for 24 h) | morphological changes of 3D spheroids, pre-spheroid monolayer or 2D hepatocyte monolayer |
| --- | --- | --- | --- |
| N=C(N)NCCC[C@H](NC(=O)CN)C(=O)NCC(=O)N[C@@H](CC(=O)O)C(=O)N[C@@H](CO)C(=O)O [GRGDS] | destabilized the hepatocyte monolayer | slight toxicity | – |
| NCCCCCCOC1O[C@H](CO)[C@H](O)[C@H](O)[C@H]1O (stereo partly drawn) [galactose ligands, 1-O-(6′-aminohexyl)-D-galactopyranoside] | – | – | did not induce any morphological changes |
